Patent US6803226B2, “Method of forming an artificial Shiro of Matsutake” (The University of Tokyo, priority 2001, dated 2004)

Tested on: Matsutake hyphae (strain Tm 89)
Experiment: Growth of Matsutake hyphae in soil containing Tween 80 additive, determined by ergosterol amount
Type: cell-based, Tricholoma Matsutake
Conditions: Tween 80 additive 1, 2 or 5 wt % vs 0 wt %, 20 wt % of soil, one month incubation at 25±1° C. in the dark, FIG. 1
Procedure: The culture substrate containing an active principle prepared as described above is put into a sterile container (a Petri-dish, etc.). A hypha solution containing Matsutake hyphae is inoculated into the culture substrate in the sterile container such that the hypha solution is spread throughout the culture substrate. Culture of Matsutake hyphae can be performed at 25±1° C. in the dark. After 1 to 3 month's culture of Matsutake hyphae, a piece of the grown hyphae (i.e., a Shiro) are taken as a sample, and the growth amount of the hyphae is determined based on the amount of ergosterol. Ergosterol can be quantified as follows. After a sample of a Shiro is freeze-dried (EYELA, FDU-830), 1 g of the sample is taken and extracted with 2.5 mL of ethanol (99.5%). The obtained extract is loaded into HPLC (high-performance liquid chromatography; HITACHI, Column L-7300; UV Detector L-7400; Autosampler L-7200; Pump L-7100; Integrator D-7500) to quantify the amount of ergosterol in the extract. With respect to the details of the quantification procedure, reference should be made to Martin et al. (1990) Mycol. Res. 94: 1059-1064. About one week after the initiation of the culture, it is observed that the hyphae are grown on the surface of the culture substrate. About 4 weeks after the initiation of the culture, increase in the growth amount of the hyphae is found. […]

## CCCCCCCC/C=C\CCCCCCCC(=O)OCCOCC(OCCO)C1OCC(OCCO)C1OCCO (stereo not shown) [Tween 80, Polyoxyethylene (20) Sorbitan Monooleate]
  growth of Matsutake hyphae (amount of ergosterol): significantly enhanced
